Source: PMC12802956, “Dalbavancin dosing in a severely underweight person with prosthetic valve endocarditis: the critical role of proactive therapeutic drug monitoring” (Journal of Antimicrobial Chemotherapy, 2025)
Like-named read-outs stand apart in the source and are kept apart here.

Tests used:
[1] = Tolerability of earlier antibiotic therapy in the patient; type: in vivo, human; details: single patient, treatment before the start of dalbavancin
Source text: (§1) We report the case of a patient who required initiation of dalbavancin therapy in November 2024 for infective endocarditis of a biological aortic valve (replaced April 2024) caused by Corynebacterium striatum. […] Due to a high surgical risk, the patient was deemed ineligible for repeat cardiac surgery.

[2] = Therapeutic drug monitoring of dalbavancin plasma concentrations (Cmin, Cmax) in a severely underweight patient; type: in vivo, human
Procedure: Following multidisciplinary consultation, a dosing regimen of dalbavancin 1000 mg administered on day 1 and day 8 was initiated. Subsequent dosing intervals were guided based on TDM results, assessing both minimum (Cmin, within 1 h before the injection) and maximum (Cmax, 30–60 min after the end of infusion) dalbavancin plasma concentrations, as previously described.[3],[4] Cmin and Cmax values were incorporated into log-linear regression models by plotting the logarithm of dalbavancin plasma concentrations against time, to estimate individualized timing of subsequent doses, with the aim of maintaining Cmin levels above 8 mg/L (based on a breakpoint MIC of […]).[3–7],[9]
The quantification of dalbavancin plasma concentrations was performed using a previously validated liquid chromatography–tandem mass spectrometry method.[10] The volume of distribution was estimated as the ratio between the dalbavancin dose and the mean Cmax concentration. Written informed consent for all medical procedures and interventions performed in accordance with clinical practice was obtained from the patient.

[3] = test system: Corynebacterium striatum; assay: Clinical course of prosthetic aortic valve infective endocarditis under dalbavancin therapy; type: in vivo, human; details: single patient
Source text: as §1
The eighth dalbavancin dose was scheduled 50 days after the previous administration.

[4] = cited from earlier work
Source text: As a result, severely underweight patients may theoretically be at risk of drug overexposure when treated with the conventional 1 ...

| Molecule | tolerability in the patient [1] | Cmin (minimum dalbavancin plasma concentration) ([2]; patient, 28-38 kg, 1000 mg on day 1 and day 8, then TDM-guided intervals, seven administrations over 217 days, sampled within 1 h before the injection, plasma, LC-MS/MS, at each TDM assessment) | volume of distribution, range ([2]; severely underweight patient (28-38 kg), dose/Cmax, range over the observation period) | mean volume of distribution ([2]; severely underweight patient (28-38 kg), ratio between dalbavancin dose and mean Cmax (30-60 min after end of infusion), plasma LC-MS/MS, mean ± spread over administrations) | volume of distribution (approximate, as discussed) ([2]; severely underweight patient, markedly reduced compared with reported values) | PET scan finding ([3]; PET scan 6 months after initiation of dalbavancin therapy) | clinical status at last follow-up visit ([3]; last follow-up visit after seven dalbavancin administrations, negative inflammatory markers) | volume of distribution ([4]; normal-weight individuals) | volume of distribution ([4]; obese individuals) | volume of distribution ([4]; overweight individuals) |
| --- | --- | --- | --- | --- | --- | --- | --- | --- | --- | --- |
| vancomycin | discontinued due to a cutaneous adverse reaction |  |  |  |  |  |  |  |  |  |
| CN[C@H]1C(=O)N[C@@H]2Cc3ccc(cc3)Oc3cc4cc(c3O[C@@H]3O[C@H](C(=O)O)[C@@H](O)[C@H](O)[C@H]3NC(=O)CCCCCCCCC(C)C)Oc3ccc(cc3Cl)[C@@H](O)[C@@H]3NC(=O)[C@H](NC(=O)[C@@H]4NC(=O)[C@@H](NC2=O)c2cc(cc(O)c2Cl)Oc2cc1ccc2O)c1ccc(O)c(c1)-c1c(O[C@H]2O[C@H](CO)[C@@H](O)[C@H](O)[C@@H]2O)cc(O)cc1[C@@H](C(=O)NCCCN(C)C)NC3=O [dalbavancin, Dalbavancin] |  | exceeded 8 mg/L | 2.2 to 3.1 L | 2.7 ± 0.4 L | 2 to 3 L | stability of the infectious process | no fever or signs of systemic infection | 3 to 4 L | 6 to 7 L | 4 to 5 L |
